The results in this text go back to patent US20240294508A1, “RIP1 MODULATORS INCLUDING AZETIDINE CYCLIC UREAS, PREPARATIONS, AND USES THEREOF” (SIRONAX LTD., priority 2021, published 2024).

For orientation: EC50 means the concentration needed to bring the measured effect to its halfway point.

The test system of this assay is HT-29 cells. Nature of the assay: HT29 cells 0FBS assay in vitro: TNF-α/SMAC mimetic/zVAD-FMK induced necroptosis, CellTiter-Glo cell viability (RIP1 inhibitory activity). It counts as cell-based. Particulars: Homo sapiens, FBS free medium, TNF-α (10 ng/ml) + SMAC mimetic (6 uM) + zVAD-FMK (10 μM), 20 hours, geometric mean EC50. From the text:
Protocol for HT29 Cells 0FBS Assay In Vitro
• Cell line: HT-29 (ATCC® HTB-38™) • Culture medium: McCOY's 5A, Gibco, Cat No. 16600-082 • FBS, Gibco, Cat No. 10099-141C • Trypsin: Gibco, Cat No. 25200-056 • DMSO: Sigma, Cat No. 67-68-5, 1L • Assay plate: Corning #3903 • Compound dilution plate: Corning #3357 • Inducers: TNFα, GenScript, Cat No. Z01001-50, • SmacM, Cat. No., HY-15989, MedChemExpress (MCE) • Z_VAD FMK, TargetMol, T6013 • Cell Titer-Glo® Luminescent Cell Viability Assay Kit: Promega, Cat No. G7573 • EnVision: PerkinElmer, 2105-0010
2. Cell Seeding of HT-29 Cells
1) HT-29 cells were checked every day to make sure they are healthy and growing as expected. They were split sub-culturing when were approximately 80% confluent.
2) First pre-warm the culture medium of McCOY's 5A medium (Gibco, Cat No. 16600-082) with 10% FBS (Gibco, Cat No. 10099-141C) in 37° C. water bath for at least 30 min.
3) Growing cells to desired level of confluency 80% in a T75 flask, aspirate the medium, and wash with warm PBS two times.
4) Add 2-3 ml fresh warm trypsin (Gibco, Cat No. 25200-056) solution. Transfer the flask to a 37° C. incubator.
5) After 5 minutes, tap the side of the flask, and examine the flask under a microscope for lifting. If necessary, return the cells to the incubator for an additional 5-10 minutes, with occasional tapping, until lifting is complete.
6) Quickly neutralize the trypsin reaction by adding 6-9 ml cell culture medium, then transfer the cells to sterile 15 ml conical tubes. Pellet the cells by centrifugation at 300×g for 7 minutes, then decant the supernatant.
7) Resuspend the cells in fresh cell culture medium. Do cell counting with hemocytometer.
8) Seed 100 μl of 5,000 cells into each well of the sterile 96-well cell culture plate (Corning 3903) and culture overnight at 37° C. with 5% CO2.
3. Compounds Titration and Treatment of HT-29 Cells
1) All batches of compounds (CPDs0 (e.g., compound 1-169) were dissolved in DMSO (Dimethyl sulfoxide) as 20 mM stock solution.
2) Take 3 ul 20 mM stock solution of CPDs to […] DMSO and mix well, continue the titration ratio of 1:3 (20 ul CPDs+40 ul DMSO), e.g., to give solutions of CPDS at 6.6 mM, 2.2 mM, etc., till the 10 points end.
3) Take out assay plates with HT-29 cells from incubator, remove all culture medium then wash 1 time with 1×PBS, and change fresh McCOY's 5A medium of FBS free with a cocktail of TNF-α (10 ng/ml), the SMAC mimetic (6 uM) and zVAD-FMK (10 μM) to stimulate the HT-29 cells to increase pRIPK1 levels and necroptosis.
4) Add 0.5 μL of the diluted compound to the corresponding 96-well assay plates.
5) Incubate the assay plates for 20 hours at 37° C. with 5% CO2.
4. Performing Cell Viability Detection of HT-29 Cells after Treated with Compounds
1) The CellTiter-Glo® Luminescent Cell Viability Assay was employed to detect the ATP levels of viable HT-29 cells.
2) Equilibrate the CellTiter-Glo® buffer and the lyophilized substrate to room temperature prior to use.
3) Resuspend the CellTiter-Glo® substrate with CellTiter-Glo® buffer, mix by gently vortexing to obtain a homogeneous solution.
4) Pipette 20 μl the enzyme/substrate mixture by multi-channel pipette into the 96-well assay plates from step 5) under the Compounds titration and treatment stage.
5) Place the plates on an orbital shaker and mix the contents for 3 minutes to induce cell lysis.
6) Then allow the plates to incubate at room temperature for 10 minutes to stabilize luminescent signal.
7) Read and record luminescence signal with EnVision.
8) The geometric mean EC50 of the compounds were calculated from 10 points response dose with duplicate. In Table 2, activity is provided as follows: +++=0.1 nM≤EC50<100 nM; ++=100 nM≤EC5 1000 nM; […].
Regarding `Cn1nccc1-c1ncc(F)c(OC2CN(C(=O)N3N=CC[C@H]3c3cncc(F)c3)C2)n1` [Compound 2, (S)-(3-((5-fluoro-2-(1-methyl-1H-pyrazol-5-yl)pyrimidin-4-yl)oxy)azetidin-1-yl)(5-(5-fluoropyridin-3-yl)-4,5-dihydro-1H-pyrazol-1-yl)methanone], the EC50 was in the range of 0.1 to 100 nM.
Then `Cc1cc[nH]c(=O)c1-c1cc(OC2CN(C(=O)N3N=CC[C@H]3c3cc(F)cc(F)c3)C2)c(F)cn1` [Compound 166, (S)-4-((1-(5-(3,5-difluorophenyl)-4,5-dihydro-11H-pyrazole-1-carbonyl)azetidin-3-yl)oxy)-5-fluoro-4′-methyl-[2,3′-bipyridin]-2′(1′H)-one], with 100 to 1000 nM; and `Cc1ncc(C2CC=NN2C(=O)N2CC(Oc3nc(-c4c(C)cnn4C)ccc3F)C2)s1` (stereo not shown) [Compound 106, (3-((6-(1,4-dimethyl-1H-pyrazol-5-yl)-3-fluoropyridin-2-yl)oxy)azetidin-1-yl)(5-(2-methylthiazol-5-yl)-4,5-dihydro-1H-pyrazol-1-yl)methanone], with 0.1 to 100 nM.
As for `Cc1c(N)nn(C)c1-c1cc(OC2CN(C(=O)N3N=CC[C@H]3c3cncc(C#N)c3)C2)c(F)cn1` [Compound 62, (S)-5-(1-(3-((2-(3-amino-1,4-dimethyl-1H-pyrazol-5-yl)-5-fluoropyridin-4-yl)oxy)azetidine-1-carbonyl)-4,5-dihydro-1H-pyrazol-5-yl)nicotinonitrile], the EC50 was 0.1 to 100 nM.
Under `Cn1nccc1-c1cc(OC2CN(C(=O)N3N=CC[C@H]3c3cncc(F)c3)C2)c(F)cn1` [Compound 27, (S)-(3-((5-fluoro-2-(1-methyl-1H-pyrazol-5-yl)pyridin-4-yl)oxy)azetidin-1-yl)(5-(5-fluoropyridin-3-yl)-4,5-dihydro-1H-pyrazol-1-yl)methanone] stands 0.1 to 100 nM.
Under `Cc1nn(-c2cc(OC3CN(C(=O)N4N=CC[C@@H]4c4cc(F)cc(F)c4F)C3)c(F)cn2)c(C)c1C(N)=O` [Compound 103, (R)-1-(5-fluoro-4-((1-(5-(2,3,5-trifluorophenyl)-4,5-dihydro-1H-pyrazole-1-carbonyl)azetidin-3-yl)oxy)pyridin-2-yl)-3,5-dimethyl-1H-pyrazole-4-carboxamide] stands 1000 to 10000 nM.
As to `Cc1nn(-c2cc(OC3CN(C(=O)N4N=CC[C@H]4c4cc(F)cc(F)c4)C3)c(Cl)cn2)c(C)c1C(N)=O` [Compound 160, (S)-1-(5-chloro-4-((1-(5-(3,5-difluorophenyl)-4,5-dihydro-1H-pyrazole-1-carbonyl)azetidin-3-yl)oxy)pyridin-2-yl)-3,5-dimethyl-1H-pyrazole-4-carboxamide], the EC50 was in the range of 0.1 to 100 nM.
`Cn1ncc(C#N)c1-c1ccc(F)c(OC2CN(C(=O)N3N=CC[C@H]3c3cncc(C#N)c3)C2)n1` [Compound 41, (S)-5-(1-(3-((6-(4-cyano-1-methyl-1H-pyrazol-5-yl)-3-fluoropyridin-2-yl)oxy)azetidine-1-carbonyl)-4,5-dihydro-1H-pyrazol-5-yl)nicotinonitrile]: the EC50 lay within 0.1 to 100 nM.
Under `Cc1ncsc1-c1cc(OC2CN(C(=O)N3N=CC[C@H]3c3cncc(F)c3)C2)c(F)cn1` [Compound 64, (S)-(3-((5-fluoro-2-(4-methylthiazol-5-yl)pyridin-4-yl)oxy)azetidin-1-yl)(5-(5-fluoropyridin-3-yl)-4,5-dihydro-1H-pyrazol-1-yl)methanone] stands 0.1 to 100 nM; under `CCS(=O)(=O)c1c(C)nn(-c2cc(OC3CN(C(=O)N4N=CC[C@H]4c4cc(F)cc(C#N)c4)C3)c(F)cn2)c1C` [Compound 48, (S)-3-(1-(3-((2-(4-(ethylsulfonyl)-3,5-dimethyl-1H-pyrazol-1-yl)-5-fluoropyridin-4-yl)oxy)azetidine-1-carbonyl)-4,5-dihydro-1H-pyrazol-5-yl)-5-fluorobenzonitrile], 0.1 to 100 nM.
Under `Cc1nn(-c2cc(OC3CN(C(=O)N4N=CC[C@H]4c4cc(F)cc(F)c4F)C3)c(F)cn2)c(C)c1C(N)=O` [Compound 102, (S)-1-(5-fluoro-4-((1-(5-(2,3,5-trifluorophenyl)-4,5-dihydro-1H-pyrazole-1-carbonyl)azetidin-3-yl)oxy)pyridin-2-yl)-3,5-dimethyl-1H-pyrazole-4-carboxamide] stands 0.1 to 100 nM; under `Cc1nn(-c2cc(OC3CN(C(=O)N4N=CC[C@@H]4c4cc(F)cc(Cl)c4)C3)c(F)cn2)c(C)c1C(N)=O` [Compound 134, (R)-1-(4-((1-(5-(3-chloro-5-fluorophenyl)-4,5-dihydro-1H-pyrazole-1-carbonyl)azetidin-3-yl)oxy)-5-fluoropyridin-2-yl)-3,5-dimethyl-1H-pyrazole-4-carboxamide], 100 to 1000 nM.
Under `Cc1cncc(C2CC=NN2C(=O)N2CC(Oc3cc(-c4c(C)cnn4C)ncc3F)C2)c1` (stereo not shown) [Compound 101, (3-((2-(1,4-dimethyl-1H-pyrazol-5-yl)-5-fluoropyridin-4-yl)oxy)azetidin-1-yl)(5-(5-methylpyridin-3-yl)-4,5-dihydro-1H-pyrazol-1-yl)methanone] stands 0.1 to 100 nM; under `Cc1nc(C2CC=NN2C(=O)N2CC(Oc3cc(-c4c(C)cnn4C)ncc3Cl)C2)cs1` (stereo not shown) [Compound 127, (3-((5-chloro-2-(1,4-dimethyl-1H-pyrazol-5-yl)pyridin-4-yl)oxy)azetidin-1-yl)(5-(2-methylthiazol-4-yl)-4,5-dihydro-1H-pyrazol-1-yl)methanone], 1000 to 10000 nM.
Consider `Cc1ccc(C)n1-c1cc(OC2CN(C(=O)N3N=CC[C@H]3c3cc(F)cc(C#N)c3)C2)c(F)cn1` [Compound 39, (S)-3-(1-(3-((2-(2,5-dimethyl-1H-pyrrol-1-yl)-5-fluoropyridin-4-yl)oxy)azetidine-1-carbonyl)-4,5-dihydro-1H-pyrazol-5-yl)-5-fluorobenzonitrile], for which the EC50 was 0.1 to 100 nM.
Then `Cc1nc(C2CC=NN2C(=O)N2CC(Oc3nc(-c4c(C)cnn4C)c(F)cc3F)C2)cs1` (stereo not shown) [Compound 122, (3-((6-(1,4-dimethyl-1H-pyrazol-5-yl)-3,5-difluoropyridin-2-yl)oxy)azetidin-1-yl)(5-(2-methylthiazol-4-yl)-4,5-dihydro-11H-pyrazol-1-yl)methanone], with 0.1 to 100 nM; and `Cc1cnn(C)c1-c1cc(OC2CN(C(=O)N3N=CCC3c3ccccn3)C2)c(F)cn1` (stereo not shown) [Compound 100, (3-((2-(1,4-dimethyl-1H-pyrazol-5-yl)-5-fluoropyridin-4-yl)oxy)azetidin-1-yl)(5-(pyridin-2-yl)-4,5-dihydro-1H-pyrazol-1-yl)methanone], with 0.1 to 100 nM.
Then `Cc1c(-c2cc(OC3CN(C(=O)N4N=CC[C@H]4c4cc(F)cc(F)c4F)C3)c(F)cn2)nn(C)c1C(N)=O` [Compound 126, 3-(5-fluoro-4-((1-(5-(2,3,5-trifluorophenyl)-4,5-dihydro-1H-pyrazole-1-carbonyl)azetidin-3-yl)oxy)pyridin-2-yl)-1,4-dimethyl-1H-pyrazole-5-carboxamide], with 0.1 to 100 nM; and `Cc1ncc(C2CC=NN2C(=O)N2CC(Oc3nc(-c4c(C)cnn4C)c(F)cc3F)C2)s1` (stereo not shown) [Compound 123, (3-((6-(1,4-dimethyl-1H-pyrazol-5-yl)-3,5-difluoropyridin-2-yl)oxy)azetidin-1-yl)(5-(2-methylthiazol-5-yl)-4,5-dihydro-1H-pyrazol-1-yl)methanone], with 0.1 to 100 nM.
